In patent US20230110354A1, “THERAPEUTIC AGENT DELIVERY SYSTEMS AND METHODS OF FORMING AND USES THEREOF” (The Regents of the University of Colorado, a Body Corporate, priority 2020, published 2023):
Structures can show the parent of a compound that is named as a salt.

Tests used:
NIH3T3 cells = details: 10 pg/mL, low serum or serum-free medium; cited from earlier work
[1] = package insert; cited from earlier work
[2] = Lidocaine release study, lidocaine-loaded nanoparticles in crosslinked gelatin hydrogel (UV-Vis 280 nm); format: physicochemical
Protocol: For the lidocaine release study, a coated tubing which comprises a dried 1 cm by 0.5 cm piece of gelatin-lidocaine (100 mg lidocaine in 0.5 ml gelatin, 1% GA) was used. The coated tubing was placed in a 7 ml glass scintillation vial for the release study. The release solution medium (1 ml of PBS) was added to the scintillation vials, and the sample was incubated at 37° C. 1 ml samples were taken daily, and the release solution was replenished. The day 0 sample was taken 5 minutes after adding the release solution to the vials to measure the amount of lidocaine not incorporated into the gels.
The amount of lidocaine released as an effect of different nanoparticle formulations and differing amounts of lidocaine was determined using a UV-Vis spectrophotometer (GENESYS 10S UV-Vis) at 280 nm wavelength and samples were performed in triplicate (n=3). As a control, the same gelatin samples were prepared without the addition of lidocaine to measure any change in absorbance readings from the gel itself.

[3] = Lidocaine release study, gelatin-lidocaine hydrogel (UV-Vis 280 nm); format: physicochemical
Protocol: The coated tubing was placed in a 7 ml glass scintillation vial for the release study.
The release solution medium (1 ml of PBS) was added to the scintillation vials, and the sample was incubated at 37° C. 1 ml samples were taken daily, and the release solution was replenished. The day 0 sample was taken 5 minutes after adding the release solution to the vials to measure the amount of lidocaine not incorporated into the gels. […] As a control, the same gelatin samples were prepared without the addition of lidocaine to measure any change in absorbance readings from the gel itself.

[4] = In vitro protein release test from SRTG micelle system (ELISA); format: physicochemical; details: for loading efficiency of protein in the hydrogel / loaded protein released by day 1 (burst release): SRTG 5 wt% + micelle NPs; for loading efficiency of protein in the hydrogel: 500 ng of each protein, day 0 sample after 5 min; for loaded protein released by day 1 (burst release): PBS with 0.2% BSA, 37° C.; for sustained release rate: after day 0 / day 1 through 28 days
Protocol: Proton nuclear magnetic resonance (1H NMR) was completed with a Varian Inova 500 NMR spectrometer. 1H NMR was used to confirm the structure of PEG-PSHU-PEG. The PEG-PSHU-PEG samples to be analyzed were dissolved in 600 μL of DMSO-d6. Protein Release Test. […] Solutions were mixed and left to dissolve overnight at 4° C. […] Then, 1 mL of warm (37° C.) release solution (lx PBS with 0.2% BSA) was added to the vials. After 5 min, 1 mL of release solution was removed from each sample for the day 0 time point, and 1 mL of fresh warm release solution was added. Samples were then taken every 24 h and immediately placed in a −80° C. freezer for further analysis. Enzyme-linked immunosorbent assay (ELISA) was used to quantify the concentration of proteins in the release solution samples following the manufacturer's instructions (Peprotech, Rocky Hill, N.J.). ELISA color development was monitored with a BioTek Synergy 2 Multi-Mode Reader at 405 nm with wavelength correction set at 650 nm. The results of three replicates were averaged. The hydrogels were initially allowed to stabilize for 5 min at which a sample was taken to determine the loading efficiency of the proteins in the hydrogels (day 0).

[5] = cited from earlier work

Question: Which “effect on growth rate of NIH3T3 cells” value (NIH3T3 cells) does the source give for “TGF-β1: transforming growth factor-β1, literature example” here?
Answer: stimulated the growth rate of NIH3T3 cells

Question: For `CCN(CC)CC(=O)Nc1c(C)cccc1C` [lidocaine hydrochloride], which “maximum dose at one time” value [1] is on record?
Answer: ≤ 300 mg

Question: What about the maximum subcutaneous dose [1] of the same molecule?
Answer: about 4.5 mg/kg

Question: Which “duration of sustained release of lidocaine” value (from here on “duration … of lidocaine”) ([2]; 20 mg and 10 mg NP groups loaded with 100 mg of lidocaine, in gelatin hydrogel, PBS, 37° C.) does the source give for `CCN(CC)CC(=O)Nc1c(C)cccc1C` [lidocaine] here?
Answer: 10 days

Question: And the “duration … of lidocaine” value ([2]; 50 mg lidocaine groups, NP formulations in gelatin hydrogel)?
Answer: 11 days

Question: What about the “period of continued stable lidocaine elution, post-sterilization” value ([2]; Example 6, chest tube coated with micelle-loaded crosslinked gelatin) of the same molecule?
Answer: 3 to 7 days

Question: And the “period of continued stable lidocaine elution, post-sterilization” value ([3]; Example 7, chest tube coated with lidocaine loaded crosslinked gelatin)?
Answer: 3 to 7 days

Question: And the “duration … of lidocaine” value ([3]; various gelatin and glutaraldehyde concentrations, coated tubing method)?
Answer: 10 days

Question: With PDGF as the molecule, how does the “loading efficiency of protein in the hydrogel” value [4] read?
Answer: 99%

Question: And the “loaded protein released by day 1 (burst release)” value [4]?
Answer: approximately 3%

Question: What about the sustained release rate ([4]; SRTG micelle system) of the same molecule?
Answer: 0.39 ng per day

Question: What about the “duration of sustained release from the delivery system” value ([4]; in vitro, SRTG micelle system) of the same molecule?
Answer: 28 days

B1: IL-10: Recombinant Murine IL-10, anti-inflammatory cytokine; cited Kd is for human IL-10 (protein, UniProt P18893 19-178, looked up)
Interleukin-10: SRGQYSREDNNCTHFPVGQSHMLLELRTAFSQVKTFFQTKDQLDNILLTDSLMQDFKGYLGCQALSEMIQFYLVEVMPQAEKHGPEIKEHLNSLGEKLKTLRMRLRRCHRFLPCENKSKAVEQVKSDFNKLQDQGVYKAMNEFDIFINCIEAYMMIKMKS
Question: Which “loading efficiency of protein in the hydrogel” value [4] does the source give for B1 here?
Answer: 93%

Question: What about the “loaded protein released by day 1 (burst release)” value [4] of the same molecule?
Answer: approximately 21%

Question: And the sustained release rate ([4]; SRTG micelle system)?
Answer: 0.24 ng per day

Question: And the half-life in vivo [5]?
Answer: less than 5 h
